pIC50: −log10 of the molar value. Active and inactive are the calls of the source. The calls are words filed in the database; no cut-off is given here.
Key:
MCF7 [1] = assay: Induction of cell cycle arrest in human MCF7 cells assessed as accumulation of cells at G1 phase at 7.5 uM incubated for 48 hrs by PI/RNase staining based flow cytometry analysis (reference value: 48.01%); type: functional
[2] = Half life in male Sprague-Dawley rat at 10 mg/kg, po administered as single dose by LC-MS/MS analysis; type: ADME, organism-based; settings: in vivo
[3] = Metabolic stability in rat liver microsomes assessed as compound remaining at […] measured after 30 mins in presence of NADPH by LC-MS/MS analysis; type: ADME, Microsome; settings: read-out: Stability
MCF7 [4] = assay: Induction of cell cycle arrest in human MCF7 cells assessed as accumulation of cells at G1 phase at 3.75 uM incubated for 48 hrs by PI/RNase staining based flow cytometry analysis (reference value: 48.01%); type: functional
[5] = biological target: Protein arginine N-methyltransferase 1 (Homo sapiens, UniProt Q99873); assay: Inhibition of PRMT1 (unknown origin) using [3H]SAM as substrate preincubated for 15 mins followed by substrate addition and measured after 60 mins by microbeta scintillation counting analysis
MCF7 [6] = assay: Induction of apoptosis in human MCF7 cells assessed as dead cells at 15 uM measured after 48 hrs by Annexin V-FITC staining based flow cytometry analysis (reference value: 0.02%); type: functional
[7] = Cmax in male Sprague-Dawley rat at 10 mg/kg, po administered as single dose by LC-MS/MS analysis; type: ADME, organism-based; settings: in vivo
[8] = Bioavailability in male Sprague-Dawley rat at 2 mg/kg, iv administered via tail vein by LC-MS/MS analysis; type: ADME, organism-based; settings: in vivo
[9] = Tmax in male Sprague-Dawley rat at 10 mg/kg, po administered as single dose by LC-MS/MS analysis; type: ADME, organism-based; settings: in vivo
[10] = Cmax in male Sprague-Dawley rat at 2 mg/kg, iv administered via tail vein by LC-MS/MS analysis; type: ADME, organism-based; settings: in vivo
MCF7 [11] = assay: Induction of apoptosis in human MCF7 cells assessed as live cells at 15 uM measured after 48 hrs by Annexin V-FITC staining based flow cytometry analysis (reference value: 99.26%); type: functional
[12] = AUC (0 to 24 hrs) in male Sprague-Dawley rat at 10 mg/kg, po administered as single dose by LC-MS/MS analysis; type: ADME, organism-based; settings: in vivo
[13] = biological target: Receptor tyrosine-protein kinase erbB-4 (Homo sapiens, UniProt Q15303); assay: Inhibition of wild type GST-tagged HER4 catalytic domain (unknown origin) expressed in insect cells using poly(Glu-Tyr) as substrate incubated for 6 mins by ELISA; design: species or system Insect cell
[14] = AUC (0 to infinity) in male Sprague-Dawley rat at 10 mg/kg, po administered as single dose by LC-MS/MS analysis; type: ADME, organism-based; settings: in vivo
HeLa = assay: Antiproliferative activity against human HeLa cells assessed as inhibition of cell growth by CCK-8 assay
MCF7 [15] = assay: Induction of cell cycle arrest in human MCF7 cells assessed as accumulation of cells at S phase at 7.5 uM incubated for 48 hrs by PI/RNase staining based flow cytometry analysis (reference value: 44.87%); type: functional
MCF7 [16] = assay: Induction of cell cycle arrest in human MCF7 cells assessed as accumulation of cells at G2 phase at 7.5 uM incubated for 48 hrs by PI/Rnase staining based flow cytometry analysis (reference value: […]%); type: functional
[17] = Clearance in male Sprague-Dawley rat at 10 mg/kg, po administered as single dose by LC-MS/MS analysis; type: ADME, organism-based; settings: in vivo
[18] = AUC (0 to infinity) in male Sprague-Dawley rat at 2 mg/kg, iv administered via tail vein by LC-MS/MS analysis; type: ADME, organism-based; settings: in vivo
MCF7 [19] = assay: Induction of apoptosis in human MCF7 cells assessed as live cells at 3.75 uM measured after 48 hrs by Annexin V-FITC staining based flow cytometry analysis (reference value: 99.26%); type: functional
MCF7 [20] = assay: Induction of apoptosis in human MCF7 cells assessed as early apoptotic cells at 15 uM measured after 48 hrs by Annexin V-FITC staining based flow cytometry analysis (reference value: 0.58%); type: functional
MCF7 [21] = assay: Induction of apoptosis in human MCF7 cells assessed as late apoptotic cells at 3.75 uM measured after 48 hrs by Annexin V-FITC staining based flow cytometry analysis (reference value: 0.14%); type: functional
[22] = Clearance in male Sprague-Dawley rat at 2 mg/kg, iv administered via tail vein by LC-MS/MS analysis; type: ADME, organism-based; settings: in vivo
MCF7 [23] = assay: Induction of apoptosis in human MCF7 cells assessed as live cells at 7.5 uM measured after 48 hrs by Annexin V-FITC staining based flow cytometry analysis (reference value: 99.26%); type: functional
[24] = Half life in male Sprague-Dawley rat at 2 mg/kg, iv administered via tail vein by LC-MS/MS analysis; type: ADME, organism-based; settings: in vivo
[25] = AUC (0 to 24 hrs) in male Sprague-Dawley rat at 2 mg/kg, iv administered via tail vein by LC-MS/MS analysis; type: ADME, organism-based; settings: in vivo
[26] = biological target: T1, Protein arginine N-methyltransferase 5 (Homo sapiens, UniProt O14744); assay: Inhibition of PRMT5 (unknown origin) by radiometric-based scintillation proximity assay
MCF7 [27] = assay: Antiproliferative activity against human MCF7 cells assessed as inhibition of cell growth by CCK-8 assay
HepG2 = assay: Antiproliferative activity against human HepG2 cells assessed as inhibition of cell growth by CCK-8 assay
MCF7 [28] = assay: Induction of apoptosis in human MCF7 cells assessed as dead cells at 7.5 uM measured after 48 hrs by Annexin V-FITC staining based flow cytometry analysis (reference value: 0.02%); type: functional
MCF7 [29] = assay: Induction of apoptosis in human MCF7 cells assessed as early apoptotic cells at 3.75 uM measured after 48 hrs by Annexin V-FITC staining based flow cytometry analysis (reference value: 0.58%); type: functional
[30] = Volume of distribution in male Sprague-Dawley rat at 10 mg/kg, po administered as single dose by LC-MS/MS analysis; type: ADME, organism-based; settings: in vivo
[31] = Volume of distribution in male Sprague-Dawley rat at 2 mg/kg, iv administered via tail vein by LC-MS/MS analysis; type: ADME, organism-based; settings: in vivo
MCF7 [32] = assay: Induction of apoptosis in human MCF7 cells assessed as dead cells at 3.75 uM measured after 48 hrs by Annexin V-FITC staining based flow cytometry analysis (reference value: 0.02%); type: functional
MCF7 [33] = assay: Induction of cell cycle arrest in human MCF7 cells assessed as accumulation of cells at G2 phase at 3.75 uM incubated for 48 hrs by PI/Rnase staining based flow cytometry analysis (reference value: […]%); type: functional
A549 = assay: Antiproliferative activity against human A549 cells assessed as inhibition of cell growth by CCK-8 assay
[34] = biological target: T1, Protein arginine N-methyltransferase 5; assay: Inhibition of PRMT5 in human MCF7 cells using SmD3 as substrate assessed as reduction in symmetric arginine dimethylation by measuring reduction in SmD3me2 level incubated for 72 hrs by Western blot analysis; type: cell-based; settings: dose 3.75-15 µM
MCF7 [35] = assay: Induction of apoptosis in human MCF7 cells assessed as late apoptotic cells at 15 uM measured after 48 hrs by Annexin V-FITC staining based flow cytometry analysis (reference value: 0.14%); type: functional
[36] = Oral bioavailability in male Sprague-Dawley rat at 10 mg/kg administered as single dose by LC-MS/MS analysis; type: ADME, organism-based; settings: in vivo
MCF7 [37] = assay: Induction of apoptosis in human MCF7 cells assessed as late apoptotic cells at 7.5 uM measured after 48 hrs by Annexin V-FITC staining based flow cytometry analysis (reference value: 0.14%); type: functional
MCF7 [38] = assay: Antitumor activity against orthotopic human MCF7 cells xenografted in CB17SCID mouse assessed as inhibition of tumor growth at 10 to 20 mg/kg, po qd administered once daily for 21 days starting from 3 days post tumor inoculation and measured every day by calipers method; type: functional, organism-based; settings: dose 10-20 mg/kg, time 21.0 day
MCF7 [39] = assay: Induction of apoptosis in human MCF7 cells assessed as early apoptotic cells at 7.5 uM measured after 48 hrs by Annexin V-FITC staining based flow cytometry analysis (reference value: 0.58%); type: functional
[40] = Metabolic stability in human liver microsomes assessed as compound remaining at […] measured after 30 mins in presence of NADPH by LC-MS/MS analysis; type: ADME, Microsome; settings: read-out: Stability
MCF7 [41] = assay: Induction of cell cycle arrest in human MCF7 cells assessed as accumulation of cells at S phase at 3.75 uM incubated for 48 hrs by PI/RNase staining based flow cytometry analysis (reference value: 44.87%); type: functional
MDA-MB-231 = assay: Antiproliferative activity against human MDA-MB-231 cells assessed as inhibition of cell growth by CCK-8 assay

T1 sequence (O14744 whole entry): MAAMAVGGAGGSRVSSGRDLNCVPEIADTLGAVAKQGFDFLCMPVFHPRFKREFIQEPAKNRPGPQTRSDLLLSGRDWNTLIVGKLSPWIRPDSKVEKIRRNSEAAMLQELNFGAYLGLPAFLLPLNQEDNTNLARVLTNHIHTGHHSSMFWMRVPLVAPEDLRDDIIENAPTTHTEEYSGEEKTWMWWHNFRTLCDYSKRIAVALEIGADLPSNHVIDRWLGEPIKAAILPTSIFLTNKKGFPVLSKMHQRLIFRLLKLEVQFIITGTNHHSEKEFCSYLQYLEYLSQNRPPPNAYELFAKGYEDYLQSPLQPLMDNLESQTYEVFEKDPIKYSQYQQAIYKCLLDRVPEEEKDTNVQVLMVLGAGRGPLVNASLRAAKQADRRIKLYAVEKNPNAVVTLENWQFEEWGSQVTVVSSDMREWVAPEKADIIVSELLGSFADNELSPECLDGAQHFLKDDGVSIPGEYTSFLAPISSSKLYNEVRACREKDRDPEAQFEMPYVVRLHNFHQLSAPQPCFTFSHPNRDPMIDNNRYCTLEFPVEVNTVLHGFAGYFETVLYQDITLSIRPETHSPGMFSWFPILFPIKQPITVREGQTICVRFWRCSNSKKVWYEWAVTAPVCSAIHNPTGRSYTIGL
Receptor tyrosine-protein kinase erbB-4, sequence (Q15303 whole entry, the tested form may be a part): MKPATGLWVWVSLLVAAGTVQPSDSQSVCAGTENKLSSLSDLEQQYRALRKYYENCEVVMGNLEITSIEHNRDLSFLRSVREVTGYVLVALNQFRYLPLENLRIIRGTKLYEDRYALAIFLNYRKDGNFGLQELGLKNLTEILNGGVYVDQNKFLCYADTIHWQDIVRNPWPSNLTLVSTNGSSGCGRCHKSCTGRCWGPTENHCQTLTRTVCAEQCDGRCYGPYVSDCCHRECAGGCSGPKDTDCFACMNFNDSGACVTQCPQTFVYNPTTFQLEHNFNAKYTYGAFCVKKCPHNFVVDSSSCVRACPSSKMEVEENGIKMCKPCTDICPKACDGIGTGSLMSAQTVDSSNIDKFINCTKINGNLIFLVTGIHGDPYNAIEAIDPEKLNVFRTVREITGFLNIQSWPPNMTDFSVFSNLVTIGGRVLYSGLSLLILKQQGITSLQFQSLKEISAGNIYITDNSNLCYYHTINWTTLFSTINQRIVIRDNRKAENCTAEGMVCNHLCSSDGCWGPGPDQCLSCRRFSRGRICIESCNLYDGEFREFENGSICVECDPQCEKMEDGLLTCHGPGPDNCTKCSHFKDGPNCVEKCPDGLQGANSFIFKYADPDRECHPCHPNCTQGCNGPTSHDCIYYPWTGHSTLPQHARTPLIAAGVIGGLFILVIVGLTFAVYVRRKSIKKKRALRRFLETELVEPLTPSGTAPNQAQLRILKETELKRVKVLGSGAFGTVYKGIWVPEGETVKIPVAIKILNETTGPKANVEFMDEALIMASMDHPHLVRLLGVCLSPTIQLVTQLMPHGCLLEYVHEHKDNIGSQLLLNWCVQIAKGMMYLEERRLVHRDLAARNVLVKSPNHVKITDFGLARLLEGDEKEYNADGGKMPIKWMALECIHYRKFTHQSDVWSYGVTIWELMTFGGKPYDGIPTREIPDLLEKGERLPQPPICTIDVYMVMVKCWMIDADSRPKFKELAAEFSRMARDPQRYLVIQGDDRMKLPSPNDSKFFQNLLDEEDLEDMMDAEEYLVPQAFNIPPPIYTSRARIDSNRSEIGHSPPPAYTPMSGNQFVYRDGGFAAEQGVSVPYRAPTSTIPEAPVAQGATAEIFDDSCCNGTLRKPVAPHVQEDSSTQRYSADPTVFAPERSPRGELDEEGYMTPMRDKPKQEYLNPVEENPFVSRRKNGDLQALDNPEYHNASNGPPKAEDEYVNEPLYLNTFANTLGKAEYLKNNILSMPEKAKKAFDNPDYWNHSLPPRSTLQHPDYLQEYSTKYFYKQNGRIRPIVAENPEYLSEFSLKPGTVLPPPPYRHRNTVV
Protein arginine N-methyltransferase 1, sequence (Q99873 whole entry): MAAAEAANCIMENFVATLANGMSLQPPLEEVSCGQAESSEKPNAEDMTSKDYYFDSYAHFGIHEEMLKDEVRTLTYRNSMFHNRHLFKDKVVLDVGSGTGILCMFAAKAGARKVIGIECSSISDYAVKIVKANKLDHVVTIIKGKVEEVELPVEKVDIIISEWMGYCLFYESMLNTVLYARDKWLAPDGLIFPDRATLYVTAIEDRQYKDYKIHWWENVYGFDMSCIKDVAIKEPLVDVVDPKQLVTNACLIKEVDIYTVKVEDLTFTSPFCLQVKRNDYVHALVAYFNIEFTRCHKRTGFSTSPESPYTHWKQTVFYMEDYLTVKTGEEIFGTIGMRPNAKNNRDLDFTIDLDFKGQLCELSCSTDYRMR

COc1cc(C2NCCc3c2[nH]c2ccccc32)ccc1OCc1cc(C(F)(F)F)cc(C(F)(F)F)c1 (stereo not given)
Activity (MCF7 [1]): 62.98% | half-life [2]: 5.7 h | remaining at 0.5 h [3]: 80.3% | Activity (MCF7 [4]): 54.85% | pIC50 [5]: < 4.00 | Activity (MCF7 [6]): 0.01% | Cmax [7]: 167 ng/mL | F [8]: 100% | Tmax [9]: 2 h | Cmax [10]: 187 ng/mL | Activity (MCF7 [11]): 96.45% | AUC(0-t) [12]: 1960 ng·h/mL | pIC50 [13]: 4.06 | AUC(0-inf) [14]: 2110 ng·h/mL | pIC50 (HeLa): 5.10 | Activity (MCF7 [15]): 36.77% | Activity (MCF7 [16]): 0.26% | CL/F [17]: 78.3 mL/min/kg | AUC(0-inf) [18]: 1330 ng·h/mL | Activity (MCF7 [19]): 98.07% | Activity (MCF7 [20]): 3.07% | Activity (MCF7 [21]): 0.4% | clearance [22]: 25 mL/min/kg | Activity (MCF7 [23]): 97.31% | half-life [24]: 4.9 h | AUC(0-t) [25]: 1280 ng·h/mL | pIC50 [26]: 4.81 | pIC50 (MCF7 [27]): 5.24 | pIC50 (HepG2): 4.60 | Activity (MCF7 [28]): 0% | Activity (MCF7 [29]): 1.51% | Vd [30]: 38.5 L/kg | Vd [31]: 10.8 L/kg | Activity (MCF7 [32]): 0.02% | Activity (MCF7 [33]): 4.25% | pIC50 (A549): 5.01 | inhibition [34]: Dose-Dependent Effect | Activity (MCF7 [35]): 0.48% | bioavailability [36]: 30.6% | Activity (MCF7 [37]): 0.37% | Activity (MCF7 [38]): Active | Activity (MCF7 [39]): 2.32% | remaining at 0.5 h [40]: 85.9% | Activity (MCF7 [41]): 40.55% | pIC50 (MDA-MB-231): 5.18
